Patent publication US20180141962A1, “AZACARBAZOLE BTK INHIBITORS” (MERCK SHARP & DOHME CORP., priority 2015, published 2018)

Target: T1, BTK enzyme (recombinant full-length BTK, hBTK) (Homo sapiens, UniProt Q06187)
T1 construct: recombinant protein from baculovirus-transfected Sf9 cells: full-length BTK, 6HIS-tag cleaved; 6HIS (cleaved yes); made in house; host or cells: baculovirus-transfected Sf9 cells
Experiment: Btk enzyme activity assay, LANCE TR-FRET
Assay type: biochemical
Settings: 50 pM hBTK, 2 μM biotin-A5-peptide, 25 μM ATP; 60 minute compound & enzyme incubation; 120 minutes reaction; read-out: BTK binding potency IC50
Protocol: Btk Enzyme Activity Assay Methods
BTK enzymatic activity was determined with the LANCE (Lanthanide Chelate Excite) TR-FRET (lime-resolved fluorescence resonance energy transfer) assay. […] Phosphorylation reactions were allowed to proceed for 120 minutes. […] After 60 minutes incubation with detection reagents, reaction plates were read on a PerkinElmer EnVision plate reader using standard TR-FRET protocol. Briefly, excitation of donor molecules (Eu-chelate:anti-phospho-antibody) with a laser light source at 337 nm produces energy that can be transferred to Dylight-650 acceptor molecules if this donor:acceptor pair is within close proximity. Fluorescence intensity at both 665 nm (acceptor) and 615 nm (donor) are measured and a TR-FRET ratio calculated for each well (acceptor intensity/donor intensity). IC50 values were determined by 4 parameter robust fit of TR-FRET ratio values vs. (Log10) compound concentrations.

T1 sequence (Q06187 whole entry): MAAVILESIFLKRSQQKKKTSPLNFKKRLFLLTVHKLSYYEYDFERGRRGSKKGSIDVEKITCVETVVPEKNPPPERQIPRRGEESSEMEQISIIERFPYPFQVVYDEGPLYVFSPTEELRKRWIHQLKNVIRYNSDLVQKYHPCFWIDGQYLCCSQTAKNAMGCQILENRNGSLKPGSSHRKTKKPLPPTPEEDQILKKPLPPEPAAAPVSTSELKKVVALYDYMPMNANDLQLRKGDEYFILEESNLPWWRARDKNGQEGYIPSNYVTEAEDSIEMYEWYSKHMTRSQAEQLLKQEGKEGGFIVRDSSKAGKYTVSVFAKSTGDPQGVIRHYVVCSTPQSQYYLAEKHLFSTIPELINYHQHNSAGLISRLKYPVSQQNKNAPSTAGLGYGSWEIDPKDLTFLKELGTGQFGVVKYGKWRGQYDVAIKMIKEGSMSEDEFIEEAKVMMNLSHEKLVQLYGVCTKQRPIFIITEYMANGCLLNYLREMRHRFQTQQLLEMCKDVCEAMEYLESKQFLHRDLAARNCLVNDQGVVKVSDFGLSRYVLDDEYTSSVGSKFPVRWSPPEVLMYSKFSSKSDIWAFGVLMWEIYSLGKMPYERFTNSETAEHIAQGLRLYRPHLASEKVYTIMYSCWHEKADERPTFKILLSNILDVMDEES

Row | SMILES | IC50
1 | CNC(=O)N1CCC(c2ccc3[nH]c4c(C(N)=O)cnc(N5CCCC6(CCNC6=O)C5)c4c3c2)CC1 (centres unmarked) [Example 47, 8-[1-(methylcarbamoyl)piperidin-4-yl]-1-(1-oxo-2,7-diazaspiro[4.5]dec-7-yl)-5H-pyrido[4,3-b]indole-4-carboxamide] | 72.6 nM
2 | NC(=O)c1cnc(N2CCCC3(CCNC3=O)C2)c2c1[nH]c1ccc(C3CCN(CC(=O)O)CC3)cc12 (centres unmarked) [Example 48, {4-[4-carbamoyl-1-(1-oxo-2,7-diazaspiro[4.5]dec-7-yl)-5H-pyrido[4,3-b]indol-8-yl]piperidin-1-yl}acetic acid] | 47.6 nM
3 | CCN1CCC(c2ccc3[nH]c4c(C(N)=O)cnc(N5CCCC6(CCNC6=O)C5)c4c3c2)CC1 (centres unmarked) [Example 49, 8-(1-ethylpiperidin-4-yl)-1-(1-oxo-2,7-diazaspiro[4.5]dec-7-yl)-5H-pyrido[4,3-b]indole-4-carboxamide] | 87.3 nM
4 | CC(C)N1CCC(c2ccc3[nH]c4c(C(N)=O)cnc(N5CCCC6(CCNC6=O)C5)c4c3c2)CC1 (centres unmarked) [Example 50, 8-[1-(1-methylethyl)piperidin-4-yl]-1-(1-oxo-2,7-diazaspiro[4.5]dec-7-yl)-5H-pyrido[4,3-b]indole-4-carboxamide] | 58.7 nM
5 | COC(=O)N1CCC(c2ccc3[nH]c4c(C(N)=O)cnc(N5CCCC6(CCNC6=O)C5)c4c3c2)CC1 (centres unmarked) [Example 51, methyl 4-[4-carbamoyl-1-(1-oxo-2,7-diazaspiro[4.5]dec-7-yl)-5H-pyrido[4,3-b]indol-8-yl]piperidine-1-carboxylate] | 87.9 nM
6 | CN1CCC(c2ccc3[nH]c4c(C(N)=O)cnc(N5CCCC6(CCNC6=O)C5)c4c3c2)CC1 (centres unmarked) [Example 60, 8-(1-methylpiperidin-4-yl)-1-(1-oxo-2,7-diazaspiro[4.5]dec-7-yl)-5H-pyrido[4,3-b]indole-4-carboxamide] | 76.9 nM
7 | CC(=O)N1CCC(c2ccc3[nH]c4c(C(N)=O)cnc(N5CCCC6(CCNC6=O)C5)c4c3c2)CC1 (centres unmarked) [Example 61, 8-(1-acetylpiperidin-4-yl)-1-(1-oxo-2,7-diazaspiro[4.5]dec-7-yl)-5H-pyrido[4,3-b]indole-4-carboxamide] | 81.8 nM
8 | CC(C)(O)CN1CCC(c2ccc3[nH]c4c(C(N)=O)cnc(N5CCCC6(CCNC6=O)C5)c4c3c2)CC1 (centres unmarked) [Example 62, 8-[1-(2-hydroxy-2-methylpropyl)piperidin-4-yl]-1-(1-oxo-2,7-diazaspiro[4.5]dec-7-yl)-5H-pyrido[4,3-b]indole-4-carboxamide] | 59.7 nM
9 | NC(=O)c1cnc(N2CCCC3(CCNC3=O)C2)c2c1[nH]c1ccc(C(O)CO)cc12 (centres unmarked) [Example 65, 8-(1,2-dihydroxyethyl)-1-(1-oxo-2,7-diazaspiro[4.5]dec-7-yl)-5H-pyrido[4,3-b]indole-4-carboxamide] | 16.5 nM
10 | CS(=O)(=O)N1CCC(c2ccc3[nH]c4c(C(N)=O)cnc(N5CCCC6(CCNC6=O)C5)c4c3c2)CC1 (centres unmarked) [Example 66, 8-[1-(methylsulfonyl)piperidin-4-yl]-1-(1-oxo-2,7-diazaspiro[4.5]dec-7-yl)-5H-pyrido[4,3-b]indole-4-carboxamide] | 125 nM
11 | COc1ccc(-c2ccc3c(c2)[nH]c2c(C(N)=O)cnc(N4CCC[C@@]5(CCNC5=O)C4)c23)cn1 [Example 67, 7-(6-methoxypyridin-3-yl)-1-[(5R)-1-oxo-2,7-diazaspiro[4.5]dec-7-yl]-5H-pyrido[4,3-b]indole-4-carboxamide] | 13.9 nM
12 | COc1cc(-c2ccc3c(c2)[nH]c2c(C(N)=O)cnc(N4CCC[C@@]5(CCNC5=O)C4)c23)ccn1 [Example 69, 7-(2-methoxypyridin-4-yl)-1-[(5R)-1-oxo-2,7-diazaspiro[4.5]dec-7-yl]-5H-pyrido[4,3-b]indole-4-carboxamide] | 17.5 nM
13 | NC(=O)c1cnc(N2CCC[C@@]3(CCNC3=O)C2)c2c1[nH]c1cc(-c3cc[nH]c(=O)c3)ccc12 [Example 70, 1-[(5R)-1-oxo-2,7-diazaspiro[4.5]dec-7-yl]-7-(2-oxo-1,2-dihydropyridin-4-yl)-5H-pyrido[4,3-b]indole-4-carboxamide] | 5.4 nM
14 | COc1ccc(-c2ccc3c(c2)[nH]c2c(C(N)=O)cnc(N4CCC[C@@]5(CCN(C)C5=O)C4)c23)cn1 [Example 74, 7-(6-methoxypyridin-3-yl)-1-[(5R)-2-methyl-1-oxo-2,7-diazaspiro[4.5]dec-7-yl]-5H-pyrido[4,3-b]indole-4-carboxamide] | 8.9 nM
15 | COc1cc(-c2ccc3c(c2)[nH]c2c(C(N)=O)cnc(N4CCC[C@@]5(CCN(C)C5=O)C4)c23)ccn1 [Example 75, 7-(2-methoxypyridin-4-yl)-1-[(5R)-2-methyl-1-oxo-2,7-diazaspiro[4.5]dec-7-yl]-5H-pyrido[4,3-b]indole-4-carboxamide] | 9.5 nM

Compounds with a lower IC50, results first:

Row | IC50 | SMILES
16 | 3.9 nM | NC(=O)c1cnc(N2CCC[C@@]3(CCNC3=O)C2)c2c1[nH]c1cc(-c3ccc(=O)[nH]c3)ccc12 [Example 68, 1-[(5R)-1-oxo-2,7-diazaspiro[4.5]dec-7-yl]-7-(6-oxo-1,6-dihydropyridin-3-yl)-5H-pyrido[4,3-b]indole-4-carboxamide]
17 | 3 nM | COC(=O)N1CCC(c2ccc3c(c2)[nH]c2c(C(N)=O)cnc(N4CCCC5(CCNC5=O)C4)c23)CC1 (centres unmarked) [Example 56, methyl 4-[4-carbamoyl-1-(1-oxo-2,7-diazaspiro[4.5]dec-7-yl)-5H-pyrido[4,3-b]indol-7-yl]piperidine-1-carboxylate]
18 | 2.1 nM | CS(=O)(=O)N1CCC(c2ccc3c(c2)[nH]c2c(C(N)=O)cnc(N4CCCC5(CCNC5=O)C4)c23)CC1 (centres unmarked) [Example 57, 7-[1-(methylsulfonyl)piperidin-4-yl]-1-(1-oxo-2,7-diazaspiro[4.5]dec-7-yl)-5H-pyrido[4,3-b]indole-4-carboxamide]
19 | 1.6 nM | NC(=O)c1cnc(N2CCCC3(CCNC3=O)C2)c2c1[nH]c1cc(C3CCN(CC(=O)O)CC3)ccc12 (centres unmarked) [Example 59, {4-[4-carbamoyl-1-(1-oxo-2,7-diazaspiro[4.5]dec-7-yl)-5H-pyrido[4,3-b]indol-7-yl]piperidin-1-yl}acetic acid]
20 | 1.4 nM | CNC(=O)N1CCC(c2ccc3c(c2)[nH]c2c(C(N)=O)cnc(N4CCCC5(CCNC5=O)C4)c23)CC1 (centres unmarked) [Example 53, 7-[1-(methylcarbamoyl)piperidin-4-yl]-1-(1-oxo-2,7-diazaspiro[4.5]dec-7-yl)-5H-pyrido[4,3-b]indole-4-carboxamide]
21 | 1.4 nM | CC(=O)N1CCC(c2ccc3c(c2)[nH]c2c(C(N)=O)cnc(N4CCCC5(CCNC5=O)C4)c23)CC1 (centres unmarked) [Example 58, 7-(1-acetylpiperidin-4-yl)-1-(1-oxo-2,7-diazaspiro[4.5]dec-7-yl)-5H-pyrido[4,3-b]indole-4-carboxamide]
22 | 1.3 nM | CN1CCC(c2ccc3c(c2)[nH]c2c(C(N)=O)cnc(N4CCCC5(CCNC5=O)C4)c23)CC1 (centres unmarked) [Example 55, 7-(1-methylpiperidin-4-yl)-1-(1-oxo-2,7-diazaspiro[4.5]dec-7-yl)-5H-pyrido[4,3-b]indole-4-carboxamide]
23 | 1.2 nM | CC(C)(O)CN1CCC(c2ccc3c(c2)[nH]c2c(C(N)=O)cnc(N4CCCC5(CCNC5=O)C4)c23)CC1 (centres unmarked) [Example 54, 7-[1-(2-hydroxy-2-methylpropyl)piperidin-4-yl]-1-(1-oxo-2,7-diazaspiro[4.5]dec-7-yl)-5H-pyrido[4,3-b]indole-4-carboxamide]
24 | 0.96 nM | CC(C)N1CCC(c2ccc3c(c2)[nH]c2c(C(N)=O)cnc(N4CCCC5(CCNC5=O)C4)c23)CC1 (centres unmarked) [Example 52, 7-[1-(1-methylethyl)piperidin-4-yl]-1-(1-oxo-2,7-diazaspiro[4.5]dec-7-yl)-5H-pyrido[4,3-b]indole-4-carboxamide]
25 | 0.83 nM | CC(C)N1CCC(c2ccc3c(c2)[nH]c2c(C(N)=O)cnc(N4CCC[C@@]5(CCNC5=O)C4)c23)CC1 [Example 71, 7-[1-(1-methylethyl)piperidin-4-yl]-1-[(5R)-1-oxo-2,7-diazaspiro[4.5]dec-7-yl]-5H-pyrido[4,3-b]indole-4-carboxamide]
26 | 0.74 nM | NC(=O)c1cnc(N2CCC[C@@]3(CCNC3=O)C2)c2c1[nH]c1cc(C3CCC(=O)NC3)ccc12 (stereo partly drawn) [Example 73, 1-[(5R)-1-oxo-2,7-diazaspiro[4.5]dec-7-yl]-7-(6-oxopiperidin-3-yl)-5H-pyrido[4,3-b]indole-4-carboxamide]
27 | 0.64 nM | CC(C)N1CCC(c2ccc3c(c2)[nH]c2c(C(N)=O)cnc(N4CCC[C@@]5(CCN(C)C5=O)C4)c23)CC1 [Example 76, 7-[1-(1-methylethyl)piperidin-4-yl]-1-[(5R)-2-methyl-1-oxo-2,7-diazaspiro[4.5]dec-7-yl]-5H-pyrido[4,3-b]indole-4-carboxamide]
28 | 0.63 nM | CC(C)(O)CN1CCC(c2ccc3c(c2)[nH]c2c(C(N)=O)cnc(N4CCC[C@@]5(CCNC5=O)C4)c23)CC1 [Example 72, 7-[1-(2-hydroxy-2-methylpropyl)piperidin-4-yl]-1-[(5R)-1-oxo-2,7-diazaspiro[4.5]dec-7-yl]-5H-pyrido[4,3-b]indole-4-carboxamide]
29 | 0.55 nM | CN1CC[C@@]2(CCCN(c3ncc(C(N)=O)c4[nH]c5cc(C6CCN(CC(C)(C)O)CC6)ccc5c34)C2)C1=O [Example 77, 7-[1-(2-hydroxy-2-methylpropyl)piperidin-4-yl]-1-[(5R)-2-methyl-1-oxo-2,7-diazaspiro[4.5]dec-7-yl]-5H-pyrido[4,3-b]indole-4-carboxamide]
